Paper PMC10999543, “Identification of kinase modulators as host-directed therapeutics against intracellular methicillin-resistant Staphylococcus aureus” (Frontiers in Cellular and Infection Microbiology, 2024)

Assays:
[1] = test system: intracellular MRSA in HeLa cells; assay: Gentamicin protection assay with CFU count in MRSA-infected HeLa cells; format: cell-based, Staphylococcus aureus; conditions: for reduction of intracellular bacterial burden (CFU): validation of 17 hit compounds, Figure 2A; for reduction in bacterial burden (CFU): Figure 2B, n=17
Outline: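 Cells infected with MRSA (mean MOI 6.8 ± 4.6) for 1 hour at 37°C, extracellular bacteria killed with 30 µg/ml gentamicin for 15 min, then overnight with kinase inhibitor plus 5 µg/ml gentamicin; DMSO as negative control. Cells lysed in water with 0.05% SDS, lysates serially diluted and plated for CFU; triplicate per compound.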

[2] = test system: intracellular MRSA in MelJuSo cells; assay: Gentamicin protection assay with CFU count in MRSA-infected MelJuSo cells; format: cell-based, Staphylococcus aureus; conditions: 10 µM, n=7
Experimental: (§1) The cells were resuspended in cell culture medium without antibiotics, seeded with 10,000 cells/well into Costar flat-bottom 96-well plates (Corning, Amsterdam, the Netherlands), and were incubated overnight at 37°C/5% CO2. The next day, the bacteria were centrifuged at ≥1800 g for 15 min and resuspended in cold PBS + 5 mM ethylenediaminetetraacetic acid (EDTA). The number of CFUs present in the bacterial suspension was estimated from the optical density at 600 nm (OD600) by assuming 8x10^8 CFUs to be present in a bacterial suspension with OD600 = 1, based on prior titrations. The bacterial suspension was diluted in cell culture medium without antibiotics and added to the cells. Accuracy of the multiplicity of infection (MOI) was validated by plating serial dilutions of the MRSA inoculums on Difco TS agar plates (BD Biosciences). The calculated mean MOI throughout all experiments was 6.8 ± 4.6 (mean ± SD). Infected cells were centrifuged for 3 min at 150 g and incubated for 1 hour at 37°C/5% CO2. Next, the cells were incubated with fresh cell culture medium supplemented with 30 µg/ml gentamicin sulphate (Lonza BioWhittaker, Basel, Switzerland) for 15 min at 37°C/5% CO2 to kill residual extracellular bacteria. Infected cells were incubated overnight at 37°C/5% CO2 in cell culture medium in the presence of kinase inhibitors and 5 µg/ml gentamicin sulphate-containing medium to prevent the growth of extracellular bacteria. The solvent of the compounds, DMSO, was used at equal % v/v as a negative control. For the screen, each compound was tested in triplicate, on separate cell culture plates, resulting in triplicate values for each kinase inhibitor.
Infected cells were lysed in sterile water + 0.05% UltraPure SDS solution (Invitrogen, ThermoFisher Scientific) to release intracellular bacteria. Bacterial suspensions and lysates of cells infected with MRSA were 5-fold serially diluted and 10-μl drops were plated on square TS agar plates. The plates were left to dry and incubated overnight at 37°C/5% CO2.

[3] = test system: intracellular MRSA in PMA-differentiated THP-1 cells; assay: Gentamicin protection assay with CFU count in MRSA-infected PMA-differentiated THP-1 cells; format: cell-based, Staphylococcus aureus; conditions: 10 µM, n=6
Experimental: as §1, with “Infected cells were incubated overnight at 37°C/5% CO2 in cell culture medium in the presence of kinase inhibitors and 5 µg/ml gentamicin sulphate-containing medium to prevent the growth of extracellular bacteria. The solvent of the compounds, DMSO, was used at equal % v/v as a negative control. For the screen, each compound was tested in triplicate, on separate cell culture plates, resulting in triplicate values for each kinase inhibitor.” left out

[4] = test system: intracellular MRSA in A549 cells; assay: Gentamicin protection assay with CFU count in MRSA-infected A549 cells; format: cell-based, Staphylococcus aureus; conditions: 10 µM, n=7
Experimental: as §1, with “Infected cells were incubated overnight at 37°C/5% CO2 in cell culture medium in the presence of kinase inhibitors and 5 µg/ml gentamicin sulphate-containing medium to prevent the growth of extracellular bacteria. The solvent of the compounds, DMSO, was used at equal % v/v as a negative control. For the screen, each compound was tested in triplicate, on separate cell culture plates, resulting in triplicate values for each kinase inhibitor.” left out

[5] = test system: HeLa cells; assay: Compound screen by flow cytometry: HeLa cell count as surrogate readout of cell viability (z-scoreHeLa); format: cell-based, human; conditions: for cell count rep 1 / z-scoreHeLa rep 1: replicate 1; for cell count rep 2 / z-scoreHeLa rep 2: replicate 2; for cell count rep 3 / z-scoreHeLa rep 3: replicate 3; for z-scoreHeLa mean: mean of 3 replicates
Outline: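 HeLa cells were infected with GFP-MRSA (mean MOI 6.8 ± 4.6) for 1 h, and extracellular bacteria were killed with 30 µg/ml gentamicin. Cells were then incubated overnight with kinase inhibitors in 5 µg/ml gentamicin, in triplicate against DMSO controls. Flow-cytometric cell count served as a viability surrogate, expressed as a plate z-score.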

[6] = test system: LC3; assay: Autophagosome formation by western blot (LC3-II/LC3-I); format: cell-based, human; conditions: MRSA-infected HeLa cells
Experimental: HeLa cells were seeded with 100,000 cells/well in 24-wells plates. In short, the cells were lysed in EBSB buffer (10% v/v glycerol, 3% SDS, 100 mM Tris-HCl, pH 6.8) supplemented with one tablet of cOmplete EDTA-free protease inhibitor cocktail (Sigma-Aldrich) and proteins were denaturated at 95°C for 5 min. Protein concentrations were determined using a Pierce™ BCA protein assay kit (Thermo Fisher Scientific). Samples were diluted in Laemmli sample buffer and loaded on a 15-well 4–20% Mini-PROTEAN® TGX™ Precast Protein Gel for electrophoresis (both from Bio-Rad, Hercules, CA, USA). […] Membranes were blocked for 1h in PBS supplemented with 5% w/v non-fat dry milk. Next, the membranes were cut and each protein was separately stained with primary antibodies against actin and LC3B in PBS supplemented with 5% w/v non-fat dry milk, or against AMPKα and AMPKα-pThr172 in PBS supplemented with 5% BSA (antibodies listed in Supplementary Table S1 ). Membranes were stained with secondary antibodies in PBS supplemented with 5% w/v non-fat dry milk. After each staining, membranes were washed four times in PBS + 0.1% Tween20. Prior to revelation, the membranes were incubated for 10 min in enhanced chemiluminescence (ECL) Prime Western Blotting System reagent (GE Healthcare, Hoevelaken, The Netherlands). […] Protein bands were quantified using Fiji software ([Schindelin et al., 2012]).

[7] = test system: planktonic MRSA cultures; assay: Bacterial growth assay in cell-free planktonic MRSA cultures (OD600); format: cell-based, Staphylococcus aureus; conditions: Supplementary Figure S5
Experimental: […] The absorbance was measured using an EnVision plate reader (PerkinElmer). The plates were incubated at 37°C overnight and the absorbance was measured again the next day. Real-time measurement of bioluminescence by the MRSA-lux strain was performed in a white flat-bottom 96-wells plate using a SpectraMax i3x plate reader and an integration time set at 9000 ms.

[8] = test system: bioluminescent strain of MRSA; assay: Real-time bioluminescence of MRSA-lux after infection of HeLa cells; format: cell-based, Staphylococcus aureus; conditions: 10 µM, infected HeLa cells
Experimental: The cells were resuspended in cell culture medium without antibiotics, seeded with 10,000 cells/well into Costar flat-bottom 96-well plates (Corning, Amsterdam, the Netherlands), and were incubated overnight at 37°C/5% CO2. The next day, the bacteria were centrifuged at ≥1800 g for 15 min and resuspended in cold PBS + 5 mM ethylenediaminetetraacetic acid (EDTA). The number of CFUs present in the bacterial suspension was estimated from the optical density at 600 nm (OD600) by assuming 8x10^8 CFUs to be present in a bacterial suspension with OD600 = 1, based on prior titrations. The bacterial suspension was diluted in cell culture medium without antibiotics and added to the cells. […] The calculated mean MOI throughout all experiments was 6.8 ± 4.6 (mean ± SD). […]
MRSA cultures at a concentration corresponding to an absorbance of 0.1 at 600 nm were incubated with the kinase inhibitors at 10 μM in flat-bottom 96-well plates. The absorbance was measured using an EnVision plate reader (PerkinElmer). The plates were incubated at 37°C overnight and the absorbance was measured again the next day. Real-time measurement of bioluminescence by the MRSA-lux strain was performed in a white flat-bottom 96-wells plate using a SpectraMax i3x plate reader and an integration time set at 9000 ms.

[9] = test system: EGFR; design: method as in Elkins et al., 2016; conditions: PKIS1, Caliper assay, ref Elkins et al., 2016; cited from earlier work
[10] = test system: HER4; design: method as in Elkins et al., 2016; conditions: PKIS1, Caliper assay, ref Elkins et al., 2016; cited from earlier work
[11] = PKIS compound screen raw data, HeLa cell count
[12] = PKIS compound screen, HeLa cell count
[13] = PKIS compound screen, Yes/No call
[14] = PKIS compounds raw data, HeLa cell count
[15] = compound screen, HeLa cell count

CC(C)c1nc(-c2cccc(NS(=O)(=O)c3c(F)cccc3F)c2F)c(-c2ccnc(Nc3ccc(N4CCOCC4)nc3)n2)s1 [GSK2008607A]
reduction of intracellular bacterial burden (CFU) ([1]; 10 µM): 56%
reduction in bacterial burden (CFU) ([1]; HeLa cells, 10 µM): 72%
lowest concentration acting against intracellular MRSA (titration) ([1]; MRSA-infected HeLa cells): 10 nM
reduction in bacterial burden (CFU) [2]: 81%
effect on CFU counts [3]: reductions in CFU counts
activity on bacterial burden (CFU) [4]: not active
cell count rep 1 [5, 11]: 21178
cell count rep 2 [5, 11]: 14585
cell count rep 3 [5, 11]: 12213
z-scoreHeLa mean [5, 12]: -1.56
z-scoreHeLa rep 1 [5, 12]: -1.53
z-scoreHeLa rep 2 [5, 12]: -1.83
z-scoreHeLa rep 3 [5, 12]: -1.31
cell death [5, 13]: No
cell death ([5]; PKIS compound screen, Yes/No call on z-scoreHeLa): No
z-scoreHeLa mean ([5]; PKIS compound screen): -1.34
z-scoreHeLa rep 1 ([5]; PKIS compound screen): -1.52
z-scoreHeLa rep 2 ([5]; PKIS compound screen): -1.39
z-scoreHeLa rep 3 ([5]; PKIS compound screen): -1.10
cell count rep 1 [5, 14]: 3519
cell count rep 2 [5, 14]: 3908
cell count rep 3 [5, 14]: 3860

COc1ccc2[nH]c3c4[nH]c5ccc(OC)cc5c4c4c(c3c2c1)C(=O)NC4=O [GW296115X]
accumulation of LC3-II ([6]; in the presence of bafilomycin A1 (100 nM)): strong accumulation of LC3-II
formation of LC3-II ([6]; without bafilomycin): not affected
reduction of intracellular bacterial burden (CFU) ([1]; 10 µM): 67%
reduction in bacterial burden (CFU) ([1]; HeLa cells, 10 µM): 70%
bacterial killing when bafilomycin A1 is added ([1]; HeLa cells, combined with bafilomycin A1 (100 nM), Figure 5H): reverted
reduction of the intracellular bacterial burden, maximal ([1]; MRSA-infected HeLa cells, titration): up to 80%
Emax ([1]; Staphylococcus aureus, MRSA, HeLa): -80%
IC50 ([1]; Staphylococcus aureus, MRSA, HeLa, read-out: IC50 for reduction of intracellular bacterial burden): 159 nM
reduction in bacterial burden (CFU) [2]: 88%
direct antibiotic effects against MRSA ([7]; planktonic cultures): not the case
effect on bioluminescent MRSA growth over time [8]: acts rapidly
cell count rep 1 [5, 14]: 4446
cell count rep 2 [5, 14]: 4236
cell count rep 3 [5, 14]: 6955
cell death ([5]; Yes/No call from z-scoreHeLa): No
z-scoreHeLa mean [5, 15]: -0.11
z-scoreHeLa rep 1 [5, 15]: -0.30
z-scoreHeLa rep 2 [5, 15]: -0.0242
z-scoreHeLa rep 3 [5, 15]: -0.00316

O=S(=O)(CCNCc1ccc(-c2ccc3ncnc(Nc4ccc(OCc5cccc(F)c5)c(Cl)c4)c3c2)o1)c1ccccc1 [GW633459A]
% inhibition at 1 µM EGFR [9]: 83%
CFU (% of DMSO) at 10 µM ([1]; 10 µM, MRSA-infected HeLa cells): 41.2 % of DMSO
reduction of intracellular bacterial burden (CFU) ([1]; 10 µM): 59%
reduction in bacterial burden (CFU) ([1]; HeLa cells, 10 µM): 50%
lowest concentration acting against intracellular MRSA (titration) ([1]; MRSA-infected HeLa cells): 10 nM
reduction in bacterial burden (CFU) [2]: 81%
effect on planktonic MRSA growth (direct antibiotic effect) ([7]; up to 100 µM concentration): not observe any direct antibacterial effects
% inhibition at 1 µM HER4 [10]: 89%
effect on CFU counts [3]: reductions in CFU counts
activity on bacterial burden (CFU) [4]: not active
cell death [5, 13]: No
z-scoreHeLa mean ([5]; PKIS compound screen): 0.80
z-scoreHeLa rep 1 ([5]; PKIS compound screen): 0.28
z-scoreHeLa rep 2 ([5]; PKIS compound screen): 0.72
z-scoreHeLa rep 3 ([5]; PKIS compound screen): 1.40
cell count rep 1 [5, 14]: 5085
cell count rep 2 [5, 14]: 5223
cell count rep 3 [5, 14]: 9893
